Results from US11185100B2 (priority 2014, dated 2021).
Where a name gives a salt, the structure may show the parent alone. Read-outs that look alike come from different tables or passages of the source.

Tests used:
T1R1/T1R3 receptor = T1R1/T1R3 receptor (Felis catus, UniProt E3UMS2); assay: Activation of T1R1/T1R3 receptor by transmembrane compounds alone or with alanine, IMP, GMP, phenylalanine; HEK293 cells, calcium fluorescence (Example 5); type: cell-based, cat; details: for Max resp % of IMP +Alanine (20 mM): relative to IMP; for Thres +Alanine (20 mM) / Thres +IMP (0.2 mM): threshold concentration; for Max resp % of Ala +IMP (0.2 mM): relative to Ala; for Activity: Table 18, all transmembrane compounds tested, active / N/A (not active)
From the text: (§1) Methods: HEK293 cells that stably express T1R3 and inducibly express T1R1 were exposed to transmembrane compounds alone or in combination with one or more amino acids and/or one or more nucleotides to activate the umami receptor. Activation of the T1R1/T1R3 receptor was detected by a change in intracellular calcium levels using a calcium sensitive fluorescent dye. Cells that express T1R3 but not T1R1 were used as a control. A FLIPR® Tetra or a FlexStation® 3 was used for data capture.
In each experiment, serial dilutions of up to 10 mM of the transmembrane compound were added to the T1R1/T1R3-expressing cells.

cat T1R1/T1R3 receptor = cat T1R1/T1R3 receptor (Felis catus, UniProt E3UMS2); assay: cell-based; type: cell-based; details: for Max. resp. % of IMP: hek293 cells
From the text: as §1, with “nucleotide derivatives” for “transmembrane compounds”, “dye and/or a luminescent reporter system.” for “dye.”

[1] = in the presence of 20 mM alanine, read-out: EC50- with Ala

SMILES	+IMP (0.2 mM) Max resp % of Ala (T1R1/T1R3 receptor)	Max resp ΔF/F +IMP (0.2 mM) (T1R1/T1R3 receptor)	Max resp % of Ala +IMP (0.2 mM) (T1R1/T1R3 receptor) [%]	Thres +IMP (0.2 mM) (T1R1/T1R3 receptor) [mM]	Activity (T1R1/T1R3 receptor)	Activity (cat T1R1/T1R3 receptor)	Max resp. (ΔF/F) (cat T1R1/T1R3 receptor)	Threshold (cat T1R1/T1R3 receptor) [mM]	Max. resp. % of IMP (cat T1R1/T1R3 receptor)	other results
CCC(CC)NC(=O)/C=C/c1ccc(OC)cc1 [(E)-3-(4-methoxyphenyl)-N-(pentan-3-yl)acrylamide]	171.7 % of Ala	1.443 ΔF/F	171.7	0.0375	active					+Alanine (20 mM) Max resp % of IMP (T1R1/T1R3 receptor): 64.1 % of IMP; +Alanine (20 mM) Max resp ΔF/F (T1R1/T1R3 receptor): 0.7 ΔF/F; +Alanine (20 mM) Thres (T1R1/T1R3 receptor): 0.148 mM; Max resp % of IMP +Alanine (20 mM) (T1R1/T1R3 receptor): 64.1%; Thres +Alanine (20 mM) (T1R1/T1R3 receptor): 0.148 mM
O=C(Nc1ccccc1Br)N[C@@H]1c2ccccc2C[C@@H]1O (stereo in doubt) [1-(2-bromophenyl)-3-((1R,2S)-2-hydroxy-2,3-dihydro-1H-inden-1-yl)urea]	44.9 % of Ala	0.378 ΔF/F	44.9	3	active					+Alanine (20 mM) Max resp % of IMP (T1R1/T1R3 receptor): 33.0 % of IMP; +Alanine (20 mM) Max resp ΔF/F (T1R1/T1R3 receptor): 0.3 ΔF/F; +Alanine (20 mM) Thres (T1R1/T1R3 receptor): 3 mM; Max resp % of IMP +Alanine (20 mM) (T1R1/T1R3 receptor): 33.0%; Thres +Alanine (20 mM) (T1R1/T1R3 receptor): 3 mM
CCC(CC)NC(=O)c1ccc(OC)c(OC)c1 [3,4-dimethoxy-N-(pentan-3-yl)benzamide]	81.0 % of Ala	0.9975 ΔF/F	81.0	0.5	active					+Alanine (20 mM) Max resp % of IMP (T1R1/T1R3 receptor): 43.9 % of IMP; +Alanine (20 mM) Max resp ΔF/F (T1R1/T1R3 receptor): 0.545 ΔF/F; +Alanine (20 mM) Thres (T1R1/T1R3 receptor): 0.3 mM; Max resp % of IMP +Alanine (20 mM) (T1R1/T1R3 receptor): 43.9%; Thres +Alanine (20 mM) (T1R1/T1R3 receptor): 0.3 mM
COc1ccc(C(=O)NC(C)c2ccccc2)cc1C (stereo not shown) [4-methoxy-3-methyl-N-(1-phenylethyl)benzamide]	95.6 % of Ala	1.1775 ΔF/F	95.6	0.35	active					+Alanine (20 mM) Max resp % of IMP (T1R1/T1R3 receptor): 41.0 % of IMP; +Alanine (20 mM) Max resp ΔF/F (T1R1/T1R3 receptor): 0.51 ΔF/F; +Alanine (20 mM) Thres (T1R1/T1R3 receptor): 3 mM; Max resp % of IMP +Alanine (20 mM) (T1R1/T1R3 receptor): 41.0%; Thres +Alanine (20 mM) (T1R1/T1R3 receptor): 3 mM
CSc1ccc(-c2nnn(Cc3ccccn3)n2)cc1 [2-((5-(4-(methylthio)phenyl)-2H-tetrazol-2-yl)methyl)pyridine]	80.7 % of Ala	0.678 ΔF/F	80.7	0.1575	active					
COc1ccc(/C=C/C(=O)NC2CCCCC2C)cc1 (stereo not shown) [(E)-3-(4-methoxyphenyl)-N-(2-methylcyclohexyl) acrylamide]	144.0 % of Ala	1.7725 ΔF/F	144.0	0.3	active					+Alanine (20 mM) Max resp % of IMP (T1R1/T1R3 receptor): 63.2 % of IMP; +Alanine (20 mM) Max resp ΔF/F (T1R1/T1R3 receptor): 0.785 ΔF/F; +Alanine (20 mM) Thres (T1R1/T1R3 receptor): 3 mM; Max resp % of IMP +Alanine (20 mM) (T1R1/T1R3 receptor): 63.2%; Thres +Alanine (20 mM) (T1R1/T1R3 receptor): 3 mM
O=C(NCCc1ccccc1)C(=O)NCc1cccnc1 [N1-phenethyl-N2-(pyridin-3-ylmethyl)oxalamide]		0.7625 ΔF/F	61.9	0.1	active					Max resp % of IMP +Alanine (20 mM) (T1R1/T1R3 receptor): 30.2%; Thres +Alanine (20 mM) (T1R1/T1R3 receptor): 1 mM
CCCC(C)NC(=O)/C=C/c1ccc(OC)c(OC)c1 (stereo not shown) [(E)-3-(3,4-dimethoxyphenyl)-N-(pentan-2-yl)acrylamide; (2E)-3-(3,4-dimethoxyphenyl)-N-(pentan-2-yl)prop-2-enamide]	86.9 % of Ala									+Alanine (20 mM) Max resp % of IMP (T1R1/T1R3 receptor): 35.2 % of IMP; +Alanine (20 mM) Max resp ΔF/F (T1R1/T1R3 receptor): 0.4375 ΔF/F; +Alanine (20 mM) Thres (T1R1/T1R3 receptor): 1 mM
CCCC(C)NC(=O)c1ccc(OC)c(C)c1 (stereo not shown) [4-methoxy-3-methyl-N-(pentan-2-yl)benzamide]	128.9 % of Ala	1.5875 ΔF/F	128.9	0.025	active					+Alanine (20 mM) Max resp % of IMP (T1R1/T1R3 receptor): 126.0 % of IMP; +Alanine (20 mM) Max resp ΔF/F (T1R1/T1R3 receptor): 1.5650 ΔF/F; +Alanine (20 mM) Thres (T1R1/T1R3 receptor): 0.050 mM; Max resp % of IMP +Alanine (20 mM) (T1R1/T1R3 receptor): 126.0%; Thres +Alanine (20 mM) (T1R1/T1R3 receptor): 0.050 mM
Nc1ncnc2c1ncn2[C@H]1CC(OP(=O)(O)O)[C@@H](COP(=O)(O)O)O1 (stereo in doubt) [2′-Deoxyadenosine-3′,5′-O-bisphosphate, 2′-deoxyadenosine-3′, 5′-O-bisphosphate]						active	0.8 ΔF/F	0.005	76.4 % of IMP	EC50 (cat T1R1/T1R3 receptor; [1]): 20 µM
Nc1ccn([C@H]2O[C@@H](COP(=O)(O)O)[C@H](O)[C@@H]2O)c(=O)n1 (stereo in doubt) [Cytidine 5′-monophosphate (CMP), Cytidine 5′-monophosphate]						active				
Nc1nc2c(ncn2[C@H]2C[C@H](O)[C@@H](COP(O)(O)=S)O2)c(=O)[nH]1 [2′-Deoxyguanosine-5′-O-monophosphorothioate]						active	0.8446 ΔF/F	0.005	87.2 % of IMP	EC50 (cat T1R1/T1R3 receptor; read-out: EC50- with Ala): 20 µM
O=P(O)(O)OC[C@H]1O[C@@H](n2cnc3c(Cl)ncnc32)C(O)C1O (stereo partly shown) [6-Chloropurineriboside-5′-O-monophosphate]						active	1.5325 ΔF/F	0.0005	123.3 % of IMP	EC50 (cat T1R1/T1R3 receptor; [1]): 2 µM
Nc1ncnc2c1nc(Cl)n2[C@@H]1O[C@H](COP(=O)(O)O)C(O)C1O (stereo partly shown) [8-Chloroadenosine-5′-O-monophosphate]							0.79 ΔF/F	0.2	63.6 % of IMP	Activity (cat T1R1/T1R3 receptor; +Alanine (20 mM)): active
NC(=O)c1ncn(C2OC(COP(=O)(O)O)C(O)C2O)c1N [5-Aminoimidazole-4-carboxamide-1-β-D-ribofuranosyl 5′-monophosphate]						active	0.6985 ΔF/F	0.200	72.2 % of IMP	
Nc1ncnc2c1ncn2[C@H]1C[C@H](O)[C@@H](COP(O)(O)=S)O1 [2′-Deoxyadenosine-5′-O-monophosphorothioate]						active	1.0375 ΔF/F	0.015	83.5 % of IMP	EC50 (cat T1R1/T1R3 receptor; read-out: EC50- with Ala): 60 µM
O=c1[nH]cnc2c1ncn2C1CC(O)C(COP(O)(O)=S)O1 (stereo not shown) [2′-Deoxyinosine-5′-O-monophosphorothioate]						active	1.0375 ΔF/F	0.025	83.5 % of IMP	EC50 (cat T1R1/T1R3 receptor; read-out: EC50- with Ala): 100 µM
O=P(O)(O)OC[C@H]1O[C@@H](n2cnc3c2ncn2ccnc32)C[C@@H]1O [2′-Deoxy-1,N6-ethenoadenosine-5′-O-monophosphate]						active	0.87 ΔF/F	0.05	70.0 % of IMP	
Nc1nc2c(ncn2[C@@H]2O[C@H](COP(=O)(O)O)[C@@H](O)[C@H]2O)c(=S)[nH]1 [6-thioguanosine-5′-O-monophosphate]								0.0002		
Nc1ncnc2c1ncn2[C@@H]1O[C@H](COP(O)(O)=S)[C@@H](O)[C@H]1O										Activity (cat T1R1/T1R3 receptor; +Alanine (20 mM)): active; Threshold (cat T1R1/T1R3 receptor; threshold amount that activates the receptor, in the presence of 20 mM alanine): 0.003 mM
NC(=O)c1ncn(C2OC(COP(=O)(O)O)C(O)C2O)n1 (stereo not shown) [Ribavirin 5′-Monophosphate]						active	1.5294 ΔF/F	0.175	158.0 % of IMP	EC50 (cat T1R1/T1R3 receptor; [1]): 700 µM
CNc1ncnc2c1ncn2[C@@H]1O[C@H](COP(=O)(O)O)[C@@H](O)[C@H]1O [N6-Methyladenosine 5′-monophosphate]							0.9907 ΔF/F	0.020	102.3 % of IMP	Activity (cat T1R1/T1R3 receptor; +Alanine (20 mM)): active; EC50 (cat T1R1/T1R3 receptor; [1]): 80 µM
Nc1nc2c(ncn2[C@@H]2O[C@H](COP(=O)(O)OP(=O)(O)OP(=O)(O)O)[C@@H](O)[C@H]2O)c(=O)[nH]1 [Guanosine 5′-triphosphate]						active	1.8075 ΔF/F	0.175	145.5 % of IMP	EC50 (cat T1R1/T1R3 receptor): 700 µM
Nc1nc2c(ncn2[C@H]2O[C@@H](COP(=O)(O)O)[C@H](O)[C@@H]2O)c(=O)[nH]1 (stereo in doubt) [Guanosine monophosphate disodium salt, reference compound]						active	1.2786 ΔF/F	0.008	132.1 % of IMP	EC50 (cat T1R1/T1R3 receptor): 30 µM
